Target: Cysteinyl leukotriene receptor 1 (Cavia porcellus)
Assay: In vitro binding affinity against Cysteinyl leukotriene D4 receptor from guinea pig lung membrane

`CCCC(CCc1nnn[nH]1)Cc1ccc(OCc2ccc3ccccc3n2)cc1` (stereo unspecified) showed a Ki of 11 nM.
